Experimental data: patent US20210317099A1, “SAFER, POTENT, AND FAST ACTING ANTIMICROBIAL AGENTS” (Purdue Research Foundation, priority 2020, published 2021)
Values after ≈ are worked out from the molar mass of the structure shown. Where two headings read alike, the source gives them in different places.

Columns and labels:
[1] = tested on: Staphylococcus aureus NRS384 (MRSA USA300); experiment: Initial MIC screening, broth microdilution (CLSI); type: cell-based; conditions: for potency compared with control antibiotic: MRSA USA300, Table 1 assay; for MIC: Staphylococcus aureus NRS384 (MRSA USA300), broth microdilution, visual reading
In short: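 MRSA USA300 grown 24 h at 37 °C on tryptic soy agar, then adjusted to 5×10^5 CFU/ml in cation-adjusted Mueller-Hinton broth. Compounds serially diluted 64 to 0.5 μg/mL per CLSI broth microdilution; MIC recorded.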

[2] = tested on: Enterococcus faecalis ATCC 51299 (VRE); experiment: MIC, Gram-positive panel; type: cell-based; conditions: Enterococcus faecalis ATCC 51299 (VRE); read-out: MIC
In short: (§1)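 Overnight TSA cultures (37° C) → 0.5 McFarland suspension → dilution in CAMHB; test compounds serially diluted in inoculated broth; aerobic incubation at 37° C, 18-20 h.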

[3] = tested on: Enterococcus faecium ATCC 700221 (VRE); experiment: MIC, Gram-positive panel; type: cell-based; conditions: Enterococcus faecium ATCC 700221 (VRE); read-out: MIC
In short: as §1

MRSA NRS 119 = experiment: MIC, Gram-positive panel; type: cell-based; conditions: Staphylococcus aureus; MRSA NRS 119; read-out: MIC
In short: (§2)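 MIC values come from serial twofold-style broth dilution in CAMHB inoculated with staphylococci prepared to a 0.5 McFarland standard from overnight agar growth. Incubation runs aerobically at 37° C for 18-20 hours.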

MRSA NRS 123 = experiment: MIC, Gram-positive panel; type: cell-based; conditions: Staphylococcus aureus; MRSA NRS 123; read-out: MIC
In short: as §2

MRSA NRS 385 = experiment: MIC, Gram-positive panel; type: cell-based; conditions: Staphylococcus aureus; MRSA NRS 385; read-out: MIC
In short: as §2

MRSA NRS 386 = experiment: MIC, Gram-positive panel; type: cell-based; conditions: Staphylococcus aureus; MRSA NRS 386; read-out: MIC
In short: as §2

[4] = tested on: Methicillin-resistant S. epidermidis NRS101; experiment: MIC, Gram-positive panel; type: cell-based; conditions: Staphylococcus epidermidis; Methicillin-resistant S. epidermidis NRS101; read-out: MIC
In short: as §2

[5] = tested on: Methicillin-resistant S. pneumoniae ATCC 700677; experiment: MIC, Gram-positive panel; type: cell-based; conditions: Streptococcus pneumoniae, ATCC700677; Methicillin-resistant S. pneumoniae ATCC 700677; read-out: MIC
In short: as §1

S. aureus ATCC 6538 = experiment: MIC, Gram-positive panel; type: cell-based; conditions: Staphylococcus aureus, ATCC6538; S. aureus ATCC 6538; read-out: MIC
In short: as §2

S. aureus NRS 107 = experiment: MIC, Gram-positive panel; type: cell-based; conditions: Staphylococcus aureus, NRS107; S. aureus NRS 107; read-out: MIC
In short: as §2

S. pneumoniae ATCC 51916 = experiment: MIC, Gram-positive panel; type: cell-based; conditions: Streptococcus pneumoniae, ATCC51916; S. pneumoniae ATCC 51916; read-out: MIC
In short: as §1

VRSA 10 = experiment: MIC, Gram-positive panel; type: cell-based; conditions: Staphylococcus aureus; VRSA 10; read-out: MIC
In short: as §2

VRSA 12 = experiment: MIC, Gram-positive panel; type: cell-based; conditions: Staphylococcus aureus; VRSA 12; read-out: MIC
In short: as §2

[6] = In vitro cytotoxicity, MTS assay; type: cell-based, human; conditions: human, Caco-2 cells; Caco-2, two hours incubation, MTS; read-out: 50% cytotoxic concentration (CC50)
Description: Compounds 144, 148, 151, 155, 158, and 187 were assayed (at concentrations of 16, 32, and 64 μg/mL) against a human colorectal adenocarcinoma (Caco-2) cell to determine the potential toxic effect to mammalian cells in vitro. Briefly, cells were cultured in Dulbecco's Modified Eagle Medium (DMEM) supplemented with 10% fetal bovine serum (FBS), non-essential amino acids (1×), penicillin-streptomycin at 37° C. in presence of 5% CO2. Control cells received DMSO alone at a concentration equal to that in drug-treated wells. The cells were incubated with the compounds (in triplicate) in a 96-well plate at 37° C. with 5% CO2 for two hours. This was followed by the subsequent addition of the assay reagent MTS 3-(4,5-dimethylthiazol-2-yl)-5-(3-carboxymethoxyphenyl)-2-(4-sulfophenyl)-2H-tetrazolium) (Promega, Madison, Wis., USA) and the plate was incubated for three to four hours. Absorbance readings (at OD490) were recorded using a kinetic microplate reader (Molecular Devices, Sunnyvale, Calif., USA). The quantity of viable cells after treatment with each compound was expressed as a percentage of the viability of DMSO-treated control cells (average of triplicate wells±standard deviation).
FIG. 3. Analyzing the toxicity of 144, 148, 151, 155, 158, and 187 compounds (tested in triplicates at 16, 32 and 64 μg/mL) against human colorectal cells (Caco-2) using the MTS 3-(4,5-dimethylthiazol-2-yl)-5-(3-carboxymethoxyphenyl)-2-(4-sulfophenyl)-2H-tetrazolium) assay. Results are presented as percent viable cells relative to DMSO (negative control) to determine a baseline measurement for the cytotoxic impact of each compound. The absorbance values represent an average of three samples analyzed for each compound. Error bars represent standard deviation values. The data were analyzed via a two-way ANOVA with post-hoc Dunnett's test for multiple comparisons. An asterisk (*) denotes statistical significance (P<0.05) between results for compounds and DMSO.

[7] = Staphylococcus aureus, read-out: MIC

| Compound | potency compared with control antibiotic [1] | MIC [1] [µg/mL] | MIC [1, 7] [µg/mL] | MIC [2] [µg/mL] | MIC [3] [µg/mL] | MIC (MRSA NRS 119) [µg/mL] | MIC (MRSA NRS 123) [µg/mL] | MIC (MRSA NRS 385) [µg/mL] | MIC (MRSA NRS 386) [µg/mL] | MIC [4] [µg/mL] | MIC [5] [µg/mL] | MIC (S. aureus ATCC 6538) [µg/mL] | MIC (S. aureus NRS 107) [µg/mL] | MIC (S. pneumoniae ATCC 51916) [µg/mL] | MIC (VRSA 10) [µg/mL] | MIC (VRSA 12) [µg/mL] | CC50 at 2 h [6] [µg/mL] |
| --- | --- | --- | --- | --- | --- | --- | --- | --- | --- | --- | --- | --- | --- | --- | --- | --- | --- |
| C=C1C(=O)O[C@H](c2ccccc2)[C@@H]1c1cccc2ccccc12 [Compound 151] | potency similar to the oxazolidinone class of antimicrobial drug linezolid | 1 (≈ 3.33 µM) | 1 to 2 (≈ 3.33 to 6.66 µM) | > 64 | > 64 | 2 (≈ 6.66 µM) | 2 (≈ 6.66 µM) | 1 (≈ 3.33 µM) | 1 (≈ 3.33 µM) | 8 (≈ 26.6 µM) | 4 (≈ 13.3 µM) | 2 (≈ 6.66 µM) | 2 (≈ 6.66 µM) | 4 (≈ 13.3 µM) | 2 (≈ 6.66 µM) | 2 (≈ 6.66 µM) | > 64 |
| C=C1C(=O)O[C@H](c2ccc3ccccc3c2)[C@@H]1c1ccc2ccccc2c1 [Compound 158] | potency comparable to vancomycin | 2 (≈ 5.71 µM) | 1 to 2 (≈ 2.85 to 5.71 µM) | > 64 | > 64 | 1 (≈ 2.85 µM) | 1 (≈ 2.85 µM) | 1 (≈ 2.85 µM) | 1 (≈ 2.85 µM) | 0.5 (≈ 1.43 µM) | 2 (≈ 5.71 µM) | 1 (≈ 2.85 µM) | 1 (≈ 2.85 µM) | 2 (≈ 5.71 µM) | 1 (≈ 2.85 µM) | 2 (≈ 5.71 µM) | > 64 |
| C=C(C(=O)OC)C(c1ccc2ccccc2c1)C(O)c1cccc2ccccc12 (stereo not shown) [Compound 148] | potency comparable to vancomycin | 2 (≈ 5.23 µM) | 1 to 2 (≈ 2.61 to 5.23 µM) | > 64 | > 64 | 1 (≈ 2.61 µM) | 1 (≈ 2.61 µM) | 1 (≈ 2.61 µM) | 1 (≈ 2.61 µM) | 1 (≈ 2.61 µM) | 1 (≈ 2.61 µM) | 1 (≈ 2.61 µM) | 1 (≈ 2.61 µM) | 1 (≈ 2.61 µM) | 2 (≈ 5.23 µM) | 2 (≈ 5.23 µM) | > 64 |
| C=C1C(=O)O[C@H](c2cccc3ccccc23)[C@@H]1c1ccc2ccccc2c1 [Compound 155] | potency comparable to vancomycin | 2 (≈ 5.71 µM) | 1 to 2 (≈ 2.85 to 5.71 µM) | > 64 | > 64 | 1 (≈ 2.85 µM) | 1 (≈ 2.85 µM) | 1 (≈ 2.85 µM) | 1 (≈ 2.85 µM) | 1 (≈ 2.85 µM) | 1 (≈ 2.85 µM) | 1 (≈ 2.85 µM) | 1 (≈ 2.85 µM) | 1 (≈ 2.85 µM) | 1 (≈ 2.85 µM) | 2 (≈ 5.71 µM) | – |
